In patent publication US9044474B2, “Compositions and methods for increasing drug efficacy in cancer” (The Ohio State University, priority 2010, dated 2015):
Structures can show the parent of a compound that is named as a salt.

What was measured:
CLL cells [1] = assay: LC3 confocal immunofluorescence (autophagosome formation) in CLL cells in vitro; assay type: cell-based, human; details: for LC3 aggregation / LC3 fluorescence (autophagosome formation) versus vehicle: CLL patient cells, 4 hours, rapamycin 5 μM, thapsigargin 1 μM, F-ara-A 5 μM, chlorambucil 20 μM, CAL-101 1 μM, rituximab 10 μg/ml, flavopiridol 2 μM, CQ 0.5 μM
Method: After 4 hours exposure to agents, cells were washed in phosphate-buffered saline (PBS) and made adherent on a microscope slide by centrifugation in a Cytospin3 (Shandon) centrifuge. Immediately after cytospin, cells were fixed in cold acetone. […] Nuclei were stained blue with DAPI (Vector Laboratories, Burlingame, Calif.). Images were taken using a 60× objective and 4× digital zoom with Olympus Fluoview 1000 Laser Scanning Confocal microscope at the Ohio State University Campus Microscopy and Imaging Facility. ATF6 antibody was purchased from LifeSpan Biosciences (Seattle, Wash.) and Nrf2 was from Santa Cruz Biotechnology (Santa Cruz, Calif.). Nuclei were evaluated for ATF6 and Nrf2 using confocal microscopy to collect Z stacks, approximately 45 slices per cell, 0.2 μm each.
LC3 intensity and number of dots per cell were both assessed in the fluorescence images. Integrated intensity was measured using Metamorph v.7.0. To calculate the number of “dots” (local extreme point in pixel-intensity profile at which a number of high-intensity pixels form a cluster), a Gaussian filter was first applied to reduce noise. Cells were enumerated electronically by an improved watershed-based algorithm. To quantify co-localization, two binary nuclei images—red (R) and green (G)—are obtained. The correlation value is calculated as the number of white pixels of (R&G) divided by the number of pixels of (RIG), where (R&G) is the intersection of R and G, and (RIG) is the union of R and G. The program used for cell counts and measurement of correlation index is based on MatLab software (Natick, Mass.) and it was developed by members of Department of Biomedical Informatics, The Ohio State University.

CLL cells [2] = assay: Cell viability by annexin V/PI flow cytometry in CLL cells
Method: Percent of live cells was determined by staining with annexin V-fluorescein isothiocyanate and propidium iodide (PI). After exposure to agents, cells were washed with PBS and stained in 1× binding buffer (BD Biosciences, Franklin Lakes, N.J.). Cell viability was assessed by flow cytometry using a Beckman-Coulter Cytomics FC500 cytometer. Data were analyzed with the CXP Cytometer software package (Beckman-Coulter). A total of 10,000 cells were counted for each sample. The cells treated with flavopiridol were washed after 4 hours with PBS and re-suspended in regular growth medium (RPMI 1640) supplemented with 10% human serum and antibiotics for the remainder of the incubation time. […] For all the other conditions, cells were incubated with the respective drugs for 24 hours continuously.
CLL cells were suspended in buffer V (Amaxa kit, Lonza, Allendale, N.J.) and nucleofection was performed using program U016 (5 μg siRNA and 1×10^7 cells per cuvette). Scrambled siRNA and siRNAs to ATG5, ATG7 and ASK1 were purchased from Sigma-Aldrich. Cells were immediately suspended in warm, complete media supplemented with 10% human serum, and RNA was extracted after 36 hours. For CDK1 and CDK5, siRNAs were purchased from Applied Biosystems (Carlsbad, Calif.). Transfections were done using 5 nM siRNA per cuvette, and RNA was harvested at 48 hours.

XBP1, IRE1, GRP78 = assay: Real-time RT-PCR of ER stress genes in CLL cells in vitro; assay type: cell-based, human; details: CLL cells n=5; flavopiridol 2 μM, thapsigargin 1 μM, tunicamycin 3 μg/ml; CD52 control gene
Method: (§1) RNA was extracted using TRIzol reagent (Invitrogen, Carlsbad, Calif.) and purified using QIAGEN RNeasy columns (Qiagen, Valencia, Calif.). cDNA was prepared with SuperScript First-Strand Synthesis System (Invitrogen). Real-time PCR was performed using primers purchased from Applied Biosystems. Detection was performed using an ABI Prism 7700 sequence detection system (Applied Biosystems). Average relative expression (treatment compared with vehicle) was normalized to the internal control gene CD52. Primers to detect spliced XBP1 were designed using Primer 3 software and purchased from IDT. Samples were analyzed on 10% acrylamide gels.

XBP1, IRE1, GRP78, CHOP = assay: Real-time RT-PCR of ER stress genes in CLL cells from patients undergoing flavopiridol treatment; assay type: in vivo, human; details: CLL patients n=10, 4.5 hour
Method: as §1

PERK = PERK activity by eIF2α phosphorylation immunoblot in CLL cells; assay type: cell-based, human
Method: (§2) Proteins extracted from whole cell lysates (50 μg/lane) were separated on polyacrylamide gels and transferred on nitrocellulose membrane. Antibodies used for immunoblots included LC3, IRE1α, TRAF2, PI3K III, ATG4C, ATG5-12, UVRAG, Beclin-1 (Cell Signaling, Boston, Mass.), GAPDH, Nrf2, ASK1, ULK1 (Santa Cruz Biotechnology), and Bif-1, ATG14-Barkor (Sigma-Aldrich, St Louis, Mo.). Species-appropriate secondary antibodies were obtained from BioRad Laboratories (Hercules, Calif.). Following antibody incubations, proteins were detected using a chemiluminescent substrate (BioRad Laboratories). For co-immunoprecipitations, TrueBlot beads (eBiosciences, San Diego, Calif.) and One-hour IP Western kit (GenScript, Piscataway, N.J.) were used according to manufacturer protocols. Quantification was done using FluorChem Q (Alpha Innotech, San Leandro Calif.).

IRE1 = assay: XBP1 splicing (IRE1 activity) PCR in CLL cells; assay type: cell-based, human
Method: as §1

[3] = test system: cell lines 293T, RAW and 697, normal B cells; assay: XBP1 splicing PCR in normal B cells and cell lines; assay type: cell-based
Method: as §1

697 cells = assay: ChIP assay of ATF6 at GRP78 promoter in 697 cells; assay type: cell-based; details: relative to IgG control
Method: In brief, cells were treated with 37% formaldehyde to ensure crosslinking of proteins to DNA. Cells were lysed and sonicated to shear the chromatin to fragments of approximately 500 bp. Sheared chromatin was incubated with ATF6 antibody (LifeSpan Biosciences, Seattle, Wash.), followed by precipitation, washing and reversing of the crosslinks Purified DNA was then analyzed by real-time quantitative PCR using primers to the GRP78 promoter region. Primers were designed using Primer 3 software and purchased from IDT (Coralville, Iowa).

IRE1-ASK1-TRAF2 complex = assay: Co-immunoprecipitation of IRE1-ASK1-TRAF2 complex in 697 cells; assay type: cell-based
Method: as §2

caspases 4 and 8 = assay: Caspase 4 and 8 activity in samples from CLL patients treated with flavopiridol; assay type: in vivo, human; details: 4.5 hours following flavopiridol infusion
Method: The presence of active caspase enzymes was determined by the AFC assay. Briefly, lysates containing approximately 3×10^6 cells were incubated with 50 μM LEVD-AFC (caspase 4 substrate) or LETD-AFC (caspase 8 substrate) from MP Biomedicals (Solon, Ohio) in 2× cytobuffer from BioVision (Exton, Pa.) containing 10 mM dithiothretiol (DTT). Caspase 4 activity was measured one hour after addition of substrate and caspase 8 activity was measured 30 minutes after addition of substrate. Release of free AFC was measured with a Beckman-Coulter DTX 880 multimode detector (Filters: excitation, 405/10 nm; emission, 535/25 nm). Caspase 4 inhibitor Z-YVAD-FMK was purchased from R&D Systems.

CLL patients = CLL patients treated with flavopiridol; cited from earlier work

With `CN1CC[C@H](c2c(O)cc(O)c3c(=O)cc(-c4ccccc4Cl)oc23)[C@H](O)C1` [flavopiridol, (cis-5,7-dihydroxy-2-(2-chlorophenyl)-8-[4-(3-hydroxy-1-methyl)-piperidin-yl]-1-benzopyran-4-one)hydrochloride] the “LC3 fluorescence time course, flavopiridol vs vehicle” value (CLL cells [1]; CLL cells n=3, flavopiridol washed out after 4 hours) was “significant (P=0.001) at 3, 4 and 8 hours, and decreased to levels comparable to vehicle alone at 12 and 24 hours”, the “LC3 aggregation / LC3 fluorescence (autophagosome formation) versus vehicle” value (CLL cells [1]) was “formation of autophagosomes was observed” and the “LC3 aggregation / LC3 fluorescence (autophagosome formation) versus vehicle” value (CLL cells [1]; listed as Flavopiridol) was “comparable to the increase seen with rapamycin”. For the same compound, the “effect of ASK1 siRNA vs scrambled siRNA on sensitivity to the agent” value (CLL cells [2]; CLL cells n=5, flavopiridol 2 μM) was “significantly (P=0.005) more resistant”, the “effect of chloroquine addition on cell death caused by the agent” value (CLL cells [2]; CLL cells, annexin/PI negative, CQ 0.5 μM, flavopiridol 4 hours then washed, CQ continuous 24 hours) was “significantly enhances the cytotoxicity” and the “effect of ATG5/ATG7 siRNA vs scrambled siRNA on cytotoxicity of the agent” value (CLL cells [2]; CLL cells, viability at 24 hours, thapsigargin 1 μM, flavopiridol 2 μM) was “significantly increased”. The “expression of ER stress genes XBP1, IRE1 and GRP78” value (XBP1, IRE1, GRP78) was “significant, time-dependent increase in expression of ER stress genes XBP1, IRE1 and GRP78”, the “expression of XBP1, IRE1 and GRP78 genes, pre-treatment vs end of infusion” value (XBP1, IRE1, GRP78, CHOP) was “significant increases in XBP1, IRE1 and GRP78 genes” and the “PERK activity (phosphorylation of eIF2α)” value (PERK) was “minimally active”. For the same compound, the “IRE1 activity (splicing of IRE1 substrate XBP1)” value (IRE1; CLL cells) was “no evidence of IRE1 activity”, the “CLL samples with deficiency in XBP1 splicing” value (IRE1; CLL samples tested) was 8 of 10 and the XBP1 splicing [3] was “XBP1 splicing is detected”. The “binding of GRP78 promoter region by ATF6” value (697 cells) was “enhanced binding of the GRP78 promoter region by ATF6”, the “ASK1 and IRE1 protein in TRAF2 co-immunoprecipitates” value (IRE1-ASK1-TRAF2 complex) was “increased levels of ASK1 and IRE1 protein in TRAF2 co-immunoprecipitates” and the “patient samples with at least a two-fold increase in activity of caspases 4 and 8” value (caspases 4 and 8) was 13 of 20. For the same compound, the “CLL patients in whom drug resistance is usually observed” value (CLL patients) was “approximately 40%”.
